Laboratory results taken from patent publication US9789046B2, “Water-based resin nail polish” (LES FINS NETWORK TECHNOLOGY CO., LTD., priority 2015, dated 2017).
Converted amounts (≈) assume the structure as drawn.

Assays:
Test in all cases: Antifungal activity experiment, 96-pore plate, MTT, OD 570 nm
Assay type in all cases: cell-based
Settings in all cases: MH medium, 37° C., 24 h, read-out: semi-inhibition rate MIC50
[1] = tested on: Trichophyton rubrum
Experimental: (§1) Bacteria (Trichophyton rubrum, Trichophyton gypsum and flocculent trichomementagrophytes) are suspended in an MH culture medium, the dispersion concentration is about 10^5 cfu·mL−1, the bacterial solution is added onto 96-pore plate (100 μL of the bacterial solution is added into each pore), the culture medium is used as a blank control, DMSO is used for substituting a test material as a negative control, and itraconazole (Xian-Janssen Pharmaceutical Ltd.) is used as a positive control. […] The 96-pore plate is placed into an incubator at 37° C. to be cultured for 24 h, then 25 μL of the prepared solution containing 4 mg of PBS of MTT for each mL is added into each hole, and the solution is cultured for 4 h under a same condition, 100 μL of SDS lysis solution (including 95 mL of triple-distilled, 10 g of SDS, 5 mL of isopropyl alcohol and 0.1 mL of concentrated hydrochloric acid) is added into each pore and then is cultured for 12 h. An enzyme labeling instrument is used for determining an OD value at 570 nm, and a percent inhibition rate is calculated according to the formula equation: […]

[2] = tested on: flocculent trichomementagrophytes
Experimental: as §1

[3] = tested on: Trichophyton gypsum
Experimental: as §1

| MIC50 [1] | MIC50 [2] | MIC50 [3] | Compound |
| --- | --- | --- | --- |
| 0.63 µg/mL (≈ 0.893 µM) | 0.65 µg/mL (≈ 0.921 µM) | 0.7 µg/mL (≈ 0.992 µM) | CCC(C)n1ncn(-c2ccc(N3CCN(c4ccc(OCC5COC(Cn6cncn6)(c6ccc(Cl)cc6Cl)O5)cc4)CC3)cc2)c1=O (stereo not drawn) [itraconazole] |
| 0.63 µg/mL | 0.82 µg/mL | 0.6 µg/mL | COc1ccc(-c2cc(=O)c3cc(O)c(OC)c4c3n2OC2OC(C)=C(O)C=C2C4)cc1 (stereo not drawn) [compound of formula I] |
